Measurements from patent US12102638B2 (Urovant Sciences GmbH, priority 2017, dated 2024).
Read-outs that look alike come from different tables or passages of the source.

How the values were obtained:
healthy subjects [1] = test: maximum MA4 heart rate in multiple-dose Phase 1 study; format: in vivo, human; conditions: Day 14
Method: More intensive assessments of heart rate and blood pressure were performed in healthy volunteers in several Phase 1 studies. […] Doses ranged from 25 to 400 mg once daily for 7 to 28 days depending on the cohort. Least squares mean and 90% confidence intervals of maximum change from baseline in moving average of heart rate over 4 hours postdose (MA4 HR) are presented in Table 17.

β1-AR = target: T1, β1-AR (Homo sapiens, UniProt P08588); test: competition binding assay, membranes with recombinant β1-AR
T1 construct: expressed in transfected cells; membranes used
T1 sequence (P08588 whole entry): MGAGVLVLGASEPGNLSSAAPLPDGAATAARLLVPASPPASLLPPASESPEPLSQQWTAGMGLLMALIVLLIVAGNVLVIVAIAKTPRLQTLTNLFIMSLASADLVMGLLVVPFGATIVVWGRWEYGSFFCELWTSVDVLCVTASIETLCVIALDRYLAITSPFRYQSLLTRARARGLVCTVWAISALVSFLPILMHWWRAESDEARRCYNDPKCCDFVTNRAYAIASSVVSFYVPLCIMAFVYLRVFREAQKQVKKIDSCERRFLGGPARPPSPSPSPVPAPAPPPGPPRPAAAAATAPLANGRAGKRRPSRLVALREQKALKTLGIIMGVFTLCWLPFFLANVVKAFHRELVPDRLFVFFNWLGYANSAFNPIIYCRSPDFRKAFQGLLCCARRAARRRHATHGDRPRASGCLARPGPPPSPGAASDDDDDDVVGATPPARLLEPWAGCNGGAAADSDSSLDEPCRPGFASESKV

patients with OAB = test: Phase 2b vital sign changes (HR, SBP, DBP); format: in vivo, human
From the text: None led to discontinuation. The overall incidence of orthostatic symptoms was low.
Small differences in the percent of subjects exceeding categorical heart rate and blood pressure thresholds for vibegron were similar to those in the tolterodine arm.

[2] = single-dose PK in patients with moderate hepatic impairment; format: in vivo, human; conditions: single 100 mg
[3] = drug interaction studies: effect of co-administered medication on vibegron PK; format: in vivo, human
From the text: However, these interactions are not expected to be clinically significant.

[4] = relative bioequivalence of aqueous and non-aqueous tablets; format: in vivo, human; conditions: 50 mg
From the text: An open-label, single-dose, randomized, two-period, two-treatment, two-sequence, crossover Phase 1 study evaluated the relative bioequivalence of two types of tablets with slightly different composition: aqueous tablet (test) and non-aqueous tablet (reference).

[5] = dose-Cmax and dose-AUC models / log-log regression and simulations from Phase 1 data; parameters: species or system human
Method: In order to contextualize PK parameters of a 75 mg dose, dose-Cmax and dose-AUC models were created using data from Phase 1 studies.

[6] = test system: patients with overactive bladder
From the text: A placebo group was included in the main study, and a group that received tolterodine monotherapy was included in the main study and in the extension.

[7] = in vivo
CYP3A4 = CYP3A4 (Homo sapiens, UniProt P08684); test: in vitro metabolism by CYPs; format: in vitro ADME
CYP3A4, sequence (P08684 whole entry): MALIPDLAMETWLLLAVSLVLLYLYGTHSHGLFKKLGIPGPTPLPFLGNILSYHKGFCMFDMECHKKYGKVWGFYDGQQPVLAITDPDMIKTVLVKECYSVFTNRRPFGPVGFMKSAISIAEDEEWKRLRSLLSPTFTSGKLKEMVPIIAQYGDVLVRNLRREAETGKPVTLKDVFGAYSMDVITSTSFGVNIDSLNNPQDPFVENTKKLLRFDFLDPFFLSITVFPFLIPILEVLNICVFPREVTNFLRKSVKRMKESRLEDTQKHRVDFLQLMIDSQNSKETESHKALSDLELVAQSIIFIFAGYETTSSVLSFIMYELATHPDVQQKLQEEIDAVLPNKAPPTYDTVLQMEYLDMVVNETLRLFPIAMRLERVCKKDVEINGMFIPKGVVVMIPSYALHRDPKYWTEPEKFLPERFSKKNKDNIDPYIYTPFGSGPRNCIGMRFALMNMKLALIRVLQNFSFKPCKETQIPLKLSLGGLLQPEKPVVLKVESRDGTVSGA

healthy subjects [8] = test system: healthy subjects
From the text: Safety data from 16 Phase 1 studies, which include 15 completed Phase 1 studies and 1 study that was terminated early (this study was terminated for reasons unrelated to efficacy or safety) was collected.

[9] = multiple doses of 240 mg or 180 mg diltiazem

## O=C(Nc1ccc(C[C@@H]2CC[C@H]([C@H](O)c3ccccc3)N2)cc1)[C@@H]1CCc2nccc(=O)n21 [vibegron, (6S)—N-[4-[[(2S,5R)-5-[(R)-hydroxy(phenyl)methyl]pyrrolidin-2-yl]methyl]phenyl]-4-oxo-7,8-dihydro-6H-pyrrolo[1,2-a]pyrimidine-6-carboxamide]
Healthy subjects [1]; 200 mg once daily
  Maximum MA4 HR change from baseline, LS mean: 5.67 bpm
  Maximum MA4 HR, Difference from Placebo: 2.60 bpm
Healthy subjects [1]; 300 mg once daily
  Maximum MA4 HR change from baseline, LS mean: 9.06 bpm
  Maximum MA4 HR, Difference from Placebo: 5.98 bpm
Healthy subjects [1]; 400 mg once daily
  Maximum MA4 HR change from baseline, LS mean: 10.33 bpm
  Maximum MA4 HR, Difference from Placebo: 7.26 bpm
β1-AR
  binding to β1-AR: does not bind
Patients with OAB; 50 mg and 100 mg
  SBP and DBP mean changes at Week 1 and mean maximum changes over 8 weeks, difference between placebo and vibegron: < 1 mm Hg
Patients with OAB; 100 mg
  percent of subjects with a change from baseline in DBP >15 mmHg: 1.3%
Patients with OAB; in vivo
  HR mean maximum changes over 8 weeks, difference to placebo: < 2 bpm
Patients with OAB; vibegron 3 mg
  DBP change from baseline, mean (95% CI) Max, week 1 to 8: 5.03 (3.92, 6.15) mm Hg
  DBP change from baseline, mean (95% CI), week 1: −0.37 (−1.69, 0.95) mm Hg
  HR change from baseline, mean (95% CI) maximum, week 1 to 8: 5.57 (4.25, 6.90) bpm
  HR change from baseline, mean (95% CI), week 1: 0.36 (−0.90, 1.62) bpm
  SBP change from baseline, mean (95% CI) maximum, week 1 to 8: 7.14 (5.18, 9.10) mm Hg
  SBP change from baseline, mean (95% CI), week 1: −0.35 (−2.34, 1.65) mm Hg
Patients with OAB; vibegron 15 mg
  DBP change from baseline, mean (95% CI) Max, week 1 to 8: 6.37 (5.20, 7.53) mm Hg
  DBP change from baseline, mean (95% CI), week 1: 0.03 (−1.52, 1.59) mm Hg
  HR change from baseline, mean (95% CI) maximum, week 1 to 8: 6.56 (5.20, 7.92) bpm
  HR change from baseline, mean (95% CI), week 1: 0.35 (−1.15, 1.85) bpm
  SBP change from baseline, mean (95% CI) maximum, week 1 to 8: 8.93 (7.18, 10.67) mm Hg
  SBP change from baseline, mean (95% CI), week 1: −0.34 (−2.46, 1.78) mm Hg
Patients with OAB; vibegron 50 mg
  DBP change from baseline, mean (95% CI) Max, week 1 to 8: 4.19 (3.10, 5.29) mm Hg
  DBP change from baseline, mean (95% CI), week 1: −0.70 (−2.07, 0.67) mm Hg
  HR change from baseline, mean (95% CI) maximum, week 1 to 8: 5.49 (4.28, 6.69) bpm
  HR change from baseline, mean (95% CI), week 1: 0.29 (−0.88, 1.46) bpm
  SBP change from baseline, mean (95% CI) maximum, week 1 to 8: 7.01 (5.31, 8.70) mm Hg
  SBP change from baseline, mean (95% CI), week 1: −0.79 (−2.65, 1.08) mm Hg
Patients with OAB; vibegron 100 mg
  DBP change from baseline, mean (95% CI) Max, week 1 to 8: 4.80 (3.88, 5.72) mm Hg
  DBP change from baseline, mean (95% CI), week 1: −0.69 (−1.72, 0.34) mm Hg
  HR change from baseline, mean (95% CI) maximum, week 1 to 8: 6.12 (5.10, 7.15) bpm
  HR change from baseline, mean (95% CI), week 1: 0.35 (−0.69, 1.38) bpm
  SBP change from baseline, mean (95% CI) maximum, week 1 to 8: 6.51 (5.09, 7.93) mm Hg
  SBP change from baseline, mean (95% CI), week 1: −0.77 (−2.22, 0.68) mm Hg
[2]; Healthy Matched Control Subjects
  CL/F, geometric mean: 68.3 L/h
[2]; Moderate Hepatic Impairment
  CL/F, geometric mean: 56.0 L/h
[3]; in vivo
  effect of Tolterodine ER 4 mg on the pharmacokinetics of vibegron: no effect
[3]; [9]
  GM vibegron AUC0-inf increase: 63%
  GM vibegron Cmax increase: 68%
[4]
  AUC0-inf GMR test to reference tablet: 100.2%
  Cmax GMR test to reference tablet: 107.7%
[5]
  AUC of 75 mg lower than 200 mg single dose: ~2 fold
  AUC of 75 mg lower than 400 mg single dose: ~6 fold
  Cmax of 75 mg lower than 200 mg single dose: approximately 3.3 fold
  Cmax of 75 mg lower than 400 mg single dose: ~9.2 fold
  increase in Cmax on increase in dose from 50 to 100 mg: ~3 fold
  reduction in Cmax on decreasing the dose from 100 mg to 75 mg: ~40%
[6]; Vibegron 3 mg, N = 144, first 12 weeks
  Accidental overdose, %: (2.1) %
[6]; Vibegron 15 mg, N = 134, first 12 weeks
  Accidental overdose, %: (4.5) %
[6]; Vibegron 50 mg, N = 148, first 12 weeks
  Accidental overdose, %: (2.7) %
[6]; Vibegron 100 mg, N = 261, first 12 weeks
  Accidental overdose, %: (4.2) %
[6]; human, in vivo
  frequency of injuries: 0.9%
[7]
  severe TEAEs, SAEs or deaths: no severe TEAEs, SAEs or deaths
CYP3A4
  CYP responsible for in vitro metabolism: CYP3A4 is the predominant CYP
Healthy subjects [8]; Phase 1 multiple dose studies
  postural dizziness, dose relation: appeared to increase at doses ≥100 mg
Healthy subjects [8]; Phase 1 program
  treatment-emergent serious adverse events (SAEs) or deaths: no treatment-emergent serious adverse events (SAEs) or deaths reported
Healthy subjects [8]; Phase 1 studies
  incidence of AE orthostatic hypotension with symptoms, dose relation: higher at vibegron doses greater than 150 mg
Healthy subjects [8]; preliminary Phase 1 safety data
  laboratory safety parameters and ECG parameters: no clinically meaningful changes
Healthy subjects [8]; single doses 2 to 600 mg, multiple doses 25 to 400 mg up to 28 days
  tolerability across the Phase 1 program: generally well tolerated
Healthy subjects [8]; vibegron 100 mg, subjects with essential hypertension
  orthostatic AEs on coadministration with metoprolol or amlodipine: no occurrences of orthostatic AEs
